Values joined by “and” are separate entries in the source; they are usually repeats but may differ in a detail not shown here. Identical values can stand only once. Inconclusive results and toxic doses are left out.
Test system: CD2F1 mice, L1210 leukemia ip, survival T/C
Assay: NCI In Vivo Anticancer Drug Screen. Data for tumor model L1210 Leukemia (intraperitoneal) in CD2F1 (CDF1) mice
Conditions: higher = longer survival
Method in brief: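 Transplantable tumor in mice; compound-treated vs vehicle-treated groups. Read-out = treated/control ratio of the measured endpoint.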

[1] = endpoint: mean survival time, dose: 100.0 mg/kg/injection, schedule: Q01DX001 (ip), vehicle: saline with Tween-80
[2] = endpoint: mean survival time, dose: 400.0 mg/kg/injection, schedule: Q01DX001 (ip), vehicle: saline with Tween-80
[3] = endpoint: mean survival time, dose: 25.0 mg/kg/injection, schedule: Q01DX009 (ip), vehicle: Klucel (hydroxypropylcellulose) (HPC)
[4] = endpoint: mean survival time, dose: 50.0 mg/kg/injection, schedule: Q01DX009 (ip), vehicle: Klucel (hydroxypropylcellulose) (HPC)
[5] = endpoint: mean survival time, dose: 100.0 mg/kg/injection, schedule: Q01DX009 (ip), vehicle: Klucel (hydroxypropylcellulose) (HPC)
[6] = endpoint: mean survival time, dose: 200.0 mg/kg/injection, schedule: Q01DX009 (ip), vehicle: Klucel (hydroxypropylcellulose) (HPC)

OC1C=C(c2ccccc2)C(c2ccccc2)C(c2ccccc2)C1 (centres undefined)
T/C [1]: 89 % of control
T/C [2]: 101 % of control

CC([NH-])CC(C)[NH-].O=C(O)C(=O)O.[Pt+2] (centres undefined)
T/C (endpoint: mean survival time, dose: 12.5 mg/kg/injection, schedule: Q04DX003 (ip), vehicle: saline with Tween-80): 169 % of control
T/C (endpoint: mean survival time, dose: 12.5 mg/kg/injection, schedule: Q04DX003 (ip), vehicle: saline): 156 % of control
T/C (endpoint: mean survival time, dose: 25.0 mg/kg/injection, schedule: Q04DX003 (ip), vehicle: saline with Tween-80): 100 % of control
T/C (endpoint: mean survival time, dose: 25.0 mg/kg/injection, schedule: Q04DX003 (ip), vehicle: saline): 186 % of control

COC(=O)C(CC(C)C)NC(=O)C(CSC(c1ccccc1)(c1ccccc1)c1ccccc1)NC(c1ccccc1)(c1ccccc1)c1ccccc1 (centres undefined)
T/C (endpoint: mean survival time, dose: 50.0 mg/kg/injection, schedule: Q01DX009 (ip), vehicle: saline): 97 % of control
T/C (endpoint: mean survival time, dose: 100.0 mg/kg/injection, schedule: Q01DX009 (ip), vehicle: saline): 97 % of control
T/C (endpoint: mean survival time, dose: 200.0 mg/kg/injection, schedule: Q01DX009 (ip), vehicle: saline): 92 % of control
T/C (endpoint: mean survival time, dose: 400.0 mg/kg/injection, schedule: Q01DX009 (ip), vehicle: saline): 97 % of control

COc1c2c(c(OC)c3c1C(=O)c1ccccc1C3=O)CC(O)CC2 (centres undefined)
T/C (endpoint: mean survival time, dose: 12.5 mg/kg/injection, schedule: Q01DX009 (ip), vehicle: Klucel (hydroxypropylcellulose) (HPC)): 92 % of control
T/C [3]: 94 % of control
T/C [4]: 92 % of control
T/C [5]: 88 % of control
T/C [6]: 90 % of control

COc1ccc(N=C/C=C/c2ccccc2)cc1
T/C (endpoint: mean survival time, dose: 100.0 mg/kg/injection, schedule: Q01DX009 (ip), vehicle: saline with Tween-80): 97 % of control
T/C (endpoint: mean survival time, dose: 100.0 mg/kg/injection, schedule: Q04DX003 (ip), vehicle: saline sonified): 96 % of control
T/C (endpoint: mean survival time, dose: 200.0 mg/kg/injection, schedule: Q01DX009 (ip), vehicle: saline with Tween-80): 89 % of control
T/C (endpoint: mean survival time, dose: 200.0 mg/kg/injection, schedule: Q04DX003 (ip), vehicle: saline sonified): 103 % of control
T/C (endpoint: mean survival time, dose: 400.0 mg/kg/injection, schedule: Q01DX009 (ip), vehicle: saline with Tween-80): 90 % of control
T/C (endpoint: mean survival time, dose: 400.0 mg/kg/injection, schedule: Q04DX003 (ip), vehicle: saline sonified): 97 % of control

Nc1nc(N)c2nc(CNc3ccc(C(=O)NCCCC(=O)O)cc3)cnc2n1 (tested in a mixture with another compound)
T/C (endpoint: mean survival time, dose: 1.0 mg/kg/injection, schedule: Q01DX009 (ip), vehicle: Klucel (hydroxypropylcellulose) (HPC)): 97 % of control
T/C (endpoint: mean survival time, dose: 5.0 mg/kg/injection, schedule: Q01DX009 (ip), vehicle: Klucel (hydroxypropylcellulose) (HPC)): 102 % of control
T/C (endpoint: mean survival time, dose: 10.0 mg/kg/injection, schedule: Q01DX009 (ip), vehicle: Klucel (hydroxypropylcellulose) (HPC)): 108 % of control
T/C (endpoint: mean survival time, dose: 20.0 mg/kg/injection, schedule: Q01DX009 (ip), vehicle: Klucel (hydroxypropylcellulose) (HPC)): 102 % of control

CC[C@@]1(OC(=O)CN2CCCC2)C(=O)OCc2c1cc1n(c2=O)Cc2cc3ccccc3nc2-1
T/C (endpoint: median survival time, dose: 6.25 mg/kg/injection, schedule: Q04DX002 (ip), vehicle: water): 108 % of control
T/C (endpoint: median survival time, dose: 12.5 mg/kg/injection, schedule: Q04DX002 (ip), vehicle: water): 113 % of control
T/C (endpoint: median survival time, dose: 50.0 mg/kg/injection, schedule: Q04DX002 (ip), vehicle: water): 158 % of control and 166 % of control

CCCCC#CC(C)C
T/C (endpoint: mean survival time, dose: 100.0 mg/kg/injection, schedule: Q04DX003 (ip), vehicle: saline with Tween-80): 98 % of control
T/C (endpoint: mean survival time, dose: 200.0 mg/kg/injection, schedule: Q04DX003 (ip), vehicle: saline with Tween-80): 102 % of control
T/C (endpoint: mean survival time, dose: 400.0 mg/kg/injection, schedule: Q04DX003 (ip), vehicle: saline with Tween-80): 102 % of control

CSCCSC
T/C [1]: 104 % of control
T/C (endpoint: mean survival time, dose: 200.0 mg/kg/injection, schedule: Q01DX001 (ip), vehicle: saline with Tween-80): 98 % of control
T/C [2]: 96 % of control

COC(=O)c1ccc(-c2ccccc2)cc1
T/C [3]: 96 % of control
T/C [4]: 102 % of control
T/C [5]: 103 % of control
T/C [6]: 105 % of control
T/C (endpoint: mean survival time, dose: 400.0 mg/kg/injection, schedule: Q01DX009 (ip), vehicle: Klucel (hydroxypropylcellulose) (HPC)): 102 % of control

Source: PubChem BioAssay AID256 (DTP/NCI, 2004)
